According to the supplement of paper PMC10307832:

Legend:
Experiment in all cases: relative viability (nuclei count vs DMSO), 5 days (fraction); higher = more cells survive
AZ3146 + Phenformin = compound: CN1CCC(CC1)OC2=CC(=C(C=C2)NC3=NC=C4C(=N3)N(C(=O)N4C)C5CCCC5)OC [AZ3146] + N=C(N)NC(=N)NCCc1ccccc1 [Phenformin] (partner 250 µM)
Method in brief: (§1)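 Lung cancer cell lines were pin-tool dosed in 1536-well plates on the day after seeding, with either a lone drug or a fixed anchor-drug dose plus five library-drug doses (not always all listed) in √10 steps. Nuclei were counted on 4× images after 5 days. Relative viability is the ratio of treated-well to vehicle-well nuclei counts, with each value a median of duplicate plates.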

AZ3146 + Luminespib = compound: CN1CCC(CC1)OC2=CC(=C(C=C2)NC3=NC=C4C(=N3)N(C(=O)N4C)C5CCCC5)OC [AZ3146] + CCNC(=O)c1noc(-c2cc(C(C)C)c(O)cc2O)c1-c1ccc(CN2CCOCC2)cc1 [Luminespib] (partner 0.01 µM)
Method in brief: as §1

AZ3146 + Palbociclib = compound: CN1CCC(CC1)OC2=CC(=C(C=C2)NC3=NC=C4C(=N3)N(C(=O)N4C)C5CCCC5)OC [AZ3146] + CC(=O)c1c(C)c2cnc(Nc3ccc(N4CCNCC4)cn3)nc2n(C2CCCC2)c1=O [Palbociclib] (partner 0.5 µM)
Method in brief: as §1

GSK-J4 + Lapatinib = compound: CCOC(=O)CCNc1cc(N2CCc3ccccc3CC2)nc(-c2ccccn2)n1 [GSK-J4] + CS(=O)(=O)CCNCc1ccc(-c2ccc3ncnc(Nc4ccc(OCc5cccc(F)c5)c(Cl)c4)c3c2)o1 [Lapatinib] (partner 2 µM)
Method in brief: as §1

Cell Line	relative viability (AZ3146 + Phenformin; first compound 0.08 µM)	relative viability (AZ3146 + Phenformin; first compound 0.253 µM)	relative viability (AZ3146 + Phenformin; first compound 0.8 µM)	relative viability (AZ3146 + Phenformin; first compound 2.53 µM)	relative viability (AZ3146 + Phenformin; first compound 8 µM)	relative viability (AZ3146 + Luminespib; first compound 0.08 µM)	relative viability (AZ3146 + Luminespib; first compound 0.253 µM)	relative viability (AZ3146 + Luminespib; first compound 0.8 µM)	relative viability (AZ3146 + Luminespib; first compound 2.53 µM)	relative viability (AZ3146 + Luminespib; first compound 8 µM)	relative viability (AZ3146 + Palbociclib; first compound 0.08 µM)	relative viability (AZ3146 + Palbociclib; first compound 0.253 µM)	relative viability (AZ3146 + Palbociclib; first compound 0.8 µM)	relative viability (AZ3146 + Palbociclib; first compound 2.53 µM)	relative viability (AZ3146 + Palbociclib; first compound 8 µM)	relative viability (GSK-J4 + Lapatinib; first compound 0.5 µM)	relative viability (GSK-J4 + Lapatinib; first compound 1.581 µM)	relative viability (GSK-J4 + Lapatinib; first compound 5 µM)	relative viability (GSK-J4 + Lapatinib; first compound 15.81 µM)	relative viability (GSK-J4 + Lapatinib; first compound 50 µM)
NCI-H2342	0.568	0.565	0.615	0.512	0.51	0.624	0.719	0.901	0.698	0.688	0.527	0.502	0.582	0.565	0.501					
NCI-H1944	0.168	0.18	0.188	0.19	0.207	0.617	0.786	0.777	0.906	1.06	0.302	0.322	0.298	0.39	0.326	0.8	0.795	0.78	0.665	0.787
SK-LU-1	0.486	0.512	0.424	0.607	0.345	0.216	0.206	0.231	0.252	0.231	0.375	0.365	0.355	0.404	0.386	0.758	0.776	0.668	0.616	0.585
HCC-44	0.118	0.124	0.0902	0.364	0.273	0.884	1.02	1.17	1.02	0.999	0.966	0.977	1.05	0.959	0.935	0.964	0.647	0.909	1.07	0.957
201T	0.448	0.446	0.438	0.424	0.455	0.994	1.03	0.979	1.09	1.04	0.327	0.359	0.382	0.348	0.347	0.988	1.08	0.983	1.04	0.992
IA-LM																0.767	0.598	0.862	0.624	0.0952
NCI-H661	0.285	0.25	0.265	0.274	0.29	0.928	0.968	0.96	0.896	0.688	0.443	0.429	0.42	0.429	0.4	0.483	0.472	0.405	0.349	0.386
NCI-H2087	0.382	0.54	0.406	0.46	0.471	0.232	0.182	0.217	0.209	0.199	0.181	0.235	0.244	0.267	0.206	0.794	0.514		1.01	0.57
NCI-H647	0.394	0.649	0.59	0.465	0.32	0.186	0.178	0.244	0.149	0.269	0.356	0.364	0.357	0.346	0.367	1.01	0.954	0.94	0.977	0.815
A-427	0.375	0.332	0.243	0.282	0.227	0.819	0.895	0.913	0.879	0.818	0.482	0.521	0.497	0.493	0.463	1.05		0.913	0.976	0.847
NCI-H520	0.385	0.497	0.323	0.637	0.375	0.243	0.214	0.223	0.255	0.248	0.237	0.216	0.22	0.237	0.195	0.846	0.515	0.939	0.74	0.658
NCI-H1755	0.548	0.577	0.57	0.601	0.569	0.415	0.365	0.537	0.966	0.696	0.414	0.427	0.434	0.479	0.431	0.96	0.905	0.673	0.923	0.917
NCI-H1975	0.406	0.387	0.386	0.401	0.301	0.215	0.173	0.162	0.204	0.257	0.534	0.548	0.562	0.552	0.309	0.873	0.971		0.929	1.19
ChaGo-K-1	0.581	0.452	0.474	0.426	0.333	0.651	0.528	0.618	0.816	0.588	0.935	0.927	0.894	0.896	0.862					
BEN		0.291	0.248	0.268	0.242		0.224	0.637	0.282	0.269		0.47	0.511	0.479	0.471	0.657	0.622		0.764	0.635
SW 1573	0.398	0.407	0.365	0.367	0.239	0.699	0.14	0.393	0.204	0.273	0.359	0.368	0.421	0.401	0.358	1.05	1.05	0.728	0.865	1.02
EPLC-272H		0.247	0.288	0.345	0.317		0.342	0.519	0.323	0.321	0.327	0.342	0.309	0.338	0.27	0.981		0.919	0.89	0.679
LK-2	0.397	0.392	0.292	0.409	0.295	0.22	0.194	0.257	0.151	0.203			0.633	0.591	0.71	1.04	0.905	1.12	0.646	0.885
NCI-H23	0.823	0.805	0.832	0.789	0.8	0.218	0.21	0.241	0.223	0.226	0.503	0.515	0.494	0.513	0.473	0.994		0.772	0.778	0.674
NCI-H441	0.762	0.884	0.812	0.864	0.737	0.274	0.465	0.353	0.38	0.473	0.216	0.199	0.211	0.265	0.204					

Cell Line	relative viability (AZ3146 + Phenformin; first compound 0.08 µM)	relative viability (AZ3146 + Phenformin; first compound 0.253 µM)	relative viability (AZ3146 + Phenformin; first compound 0.8 µM)	relative viability (AZ3146 + Phenformin; first compound 2.53 µM)	relative viability (AZ3146 + Phenformin; first compound 8 µM)	relative viability (AZ3146 + Luminespib; first compound 0.08 µM)	relative viability (AZ3146 + Luminespib; first compound 0.253 µM)	relative viability (AZ3146 + Luminespib; first compound 0.8 µM)	relative viability (AZ3146 + Luminespib; first compound 2.53 µM)	relative viability (AZ3146 + Luminespib; first compound 8 µM)	relative viability (AZ3146 + Palbociclib; first compound 0.08 µM)	relative viability (AZ3146 + Palbociclib; first compound 0.253 µM)	relative viability (AZ3146 + Palbociclib; first compound 0.8 µM)	relative viability (AZ3146 + Palbociclib; first compound 2.53 µM)	relative viability (AZ3146 + Palbociclib; first compound 8 µM)	relative viability (GSK-J4 + Lapatinib; first compound 0.5 µM)	relative viability (GSK-J4 + Lapatinib; first compound 1.581 µM)	relative viability (GSK-J4 + Lapatinib; first compound 5 µM)	relative viability (GSK-J4 + Lapatinib; first compound 15.81 µM)	relative viability (GSK-J4 + Lapatinib; first compound 50 µM)
NCI-H2009	0.478	0.494	0.402	0.386	0.311	0.996	1.06	0.973	1.06	0.999	0.256	0.227	0.243	0.171	0.204	0.828	0.144	0.56	0.971	0.739
NCI-H2170	0.352	0.434	0.338	0.364	0.357	0.703	0.827	0.755	0.576	0.616	0.341	0.361	0.394	0.398	0.377	0.311	0.247	0.265	0.261	0.22
NCI-H1299																0.861	0.924	0.851	0.953	0.875
HCC-78	0.421	0.557	0.566	0.81	0.551						0.486	0.483	0.414	0.54	0.425	0.707	0.684	0.846		0.738
NCI-H3122	0.367	0.391	0.327	0.339	0.305	0.12	0.113	0.108	0.111	0.0978	0.179	0.19	0.228	0.23	0.19	0.966	0.989	1	0.964	0.911
NCI-H2085	0.659	0.67	0.67	0.757	0.477	0.417	0.416	0.394	0.427	0.608	0.489	0.472	0.475	0.497	0.432	0.696	0.679	0.77	0.615	0.397
HCC-366	0.58	0.544	0.607	0.601	0.587						0.312	0.398	0.419	0.391	0.271	0.969	0.786		0.937	0.602
HCC-827	0.443	0.372	0.401	0.416	0.348	0.62	0.616	0.574	0.609	0.598	0.544	0.471	0.467	0.421	0.516	0.197	0.229	0.207	0.212	0.16
Calu-6																1	1.11	1.05	1.03	1.04
HOP-62	0.567	0.697	0.604	0.647	0.523	0.943	0.865	0.87	0.959	0.992	0.357	0.5	0.438	0.436	0.447	0.701	0.689	0.846	1.02	0.86
NCI-H1563	0.619	0.645	0.596	0.639	0.644	0.465	0.525	0.477	0.51	0.511						0.821	0.621	0.784	0.834	0.892
EBC-1																0.199	0.244	0.243	0.235	0.209
NCI-H596	0.672	0.738	0.722	0.735	0.797	1.01	0.995	0.831	1.03	0.837						1.01	1.02	1	0.866	0.916
NCI-H1648													0.27	0.298	0.232					
NCI-H1703																0.937	0.912	0.84	1.11	0.695
A549		0.153	0.168	0.131	0.0734											0.952	1.03		1.1	0.902
NCI-H522	0.818	0.698	0.757	0.631	0.62	1.1	1.03	1.2	1.13	1.18	1.15	0.902	1.14	0.894	1.1					
NCI-H1623	0.586	0.534	0.591	0.607	0.565	0.486	0.591	0.612	0.604	0.556										
SW 900	0.625	0.576	0.439	0.502	0.383	0.176	0.167	0.18	0.184	0.167	0.447		0.502	0.489	0.589					
LCLC-103H	0.317	0.32	0.348	0.363	0.38	1.01	0.917	0.966	1.01	1.02	0.415	0.458	0.495	0.446	0.444					
